Patent US9902696B2, “1,4-substituted piperidine derivatives” (Cephalon, Inc., priority 2015, dated 2018)
Counter-ions that a name gives are not always drawn.

molecular target: T1, recombinant human baculovirus-expressed GST-tagged FASN (Homo sapiens, UniProt P49327); assay: FASN enzyme activity assay, fluorescence-based detection of CoA with CPM; format: biochemical; conditions: 5 nM FASN, 150 μM NADPH, 10 μM acetyl-CoA, 25 μM malonyl-CoA, 90 minutes incubation; read-out: IC50 data for Additional Compounds of Formulae I-V(a): Activity
T1 construct: GST
T1 sequence (P49327 whole entry): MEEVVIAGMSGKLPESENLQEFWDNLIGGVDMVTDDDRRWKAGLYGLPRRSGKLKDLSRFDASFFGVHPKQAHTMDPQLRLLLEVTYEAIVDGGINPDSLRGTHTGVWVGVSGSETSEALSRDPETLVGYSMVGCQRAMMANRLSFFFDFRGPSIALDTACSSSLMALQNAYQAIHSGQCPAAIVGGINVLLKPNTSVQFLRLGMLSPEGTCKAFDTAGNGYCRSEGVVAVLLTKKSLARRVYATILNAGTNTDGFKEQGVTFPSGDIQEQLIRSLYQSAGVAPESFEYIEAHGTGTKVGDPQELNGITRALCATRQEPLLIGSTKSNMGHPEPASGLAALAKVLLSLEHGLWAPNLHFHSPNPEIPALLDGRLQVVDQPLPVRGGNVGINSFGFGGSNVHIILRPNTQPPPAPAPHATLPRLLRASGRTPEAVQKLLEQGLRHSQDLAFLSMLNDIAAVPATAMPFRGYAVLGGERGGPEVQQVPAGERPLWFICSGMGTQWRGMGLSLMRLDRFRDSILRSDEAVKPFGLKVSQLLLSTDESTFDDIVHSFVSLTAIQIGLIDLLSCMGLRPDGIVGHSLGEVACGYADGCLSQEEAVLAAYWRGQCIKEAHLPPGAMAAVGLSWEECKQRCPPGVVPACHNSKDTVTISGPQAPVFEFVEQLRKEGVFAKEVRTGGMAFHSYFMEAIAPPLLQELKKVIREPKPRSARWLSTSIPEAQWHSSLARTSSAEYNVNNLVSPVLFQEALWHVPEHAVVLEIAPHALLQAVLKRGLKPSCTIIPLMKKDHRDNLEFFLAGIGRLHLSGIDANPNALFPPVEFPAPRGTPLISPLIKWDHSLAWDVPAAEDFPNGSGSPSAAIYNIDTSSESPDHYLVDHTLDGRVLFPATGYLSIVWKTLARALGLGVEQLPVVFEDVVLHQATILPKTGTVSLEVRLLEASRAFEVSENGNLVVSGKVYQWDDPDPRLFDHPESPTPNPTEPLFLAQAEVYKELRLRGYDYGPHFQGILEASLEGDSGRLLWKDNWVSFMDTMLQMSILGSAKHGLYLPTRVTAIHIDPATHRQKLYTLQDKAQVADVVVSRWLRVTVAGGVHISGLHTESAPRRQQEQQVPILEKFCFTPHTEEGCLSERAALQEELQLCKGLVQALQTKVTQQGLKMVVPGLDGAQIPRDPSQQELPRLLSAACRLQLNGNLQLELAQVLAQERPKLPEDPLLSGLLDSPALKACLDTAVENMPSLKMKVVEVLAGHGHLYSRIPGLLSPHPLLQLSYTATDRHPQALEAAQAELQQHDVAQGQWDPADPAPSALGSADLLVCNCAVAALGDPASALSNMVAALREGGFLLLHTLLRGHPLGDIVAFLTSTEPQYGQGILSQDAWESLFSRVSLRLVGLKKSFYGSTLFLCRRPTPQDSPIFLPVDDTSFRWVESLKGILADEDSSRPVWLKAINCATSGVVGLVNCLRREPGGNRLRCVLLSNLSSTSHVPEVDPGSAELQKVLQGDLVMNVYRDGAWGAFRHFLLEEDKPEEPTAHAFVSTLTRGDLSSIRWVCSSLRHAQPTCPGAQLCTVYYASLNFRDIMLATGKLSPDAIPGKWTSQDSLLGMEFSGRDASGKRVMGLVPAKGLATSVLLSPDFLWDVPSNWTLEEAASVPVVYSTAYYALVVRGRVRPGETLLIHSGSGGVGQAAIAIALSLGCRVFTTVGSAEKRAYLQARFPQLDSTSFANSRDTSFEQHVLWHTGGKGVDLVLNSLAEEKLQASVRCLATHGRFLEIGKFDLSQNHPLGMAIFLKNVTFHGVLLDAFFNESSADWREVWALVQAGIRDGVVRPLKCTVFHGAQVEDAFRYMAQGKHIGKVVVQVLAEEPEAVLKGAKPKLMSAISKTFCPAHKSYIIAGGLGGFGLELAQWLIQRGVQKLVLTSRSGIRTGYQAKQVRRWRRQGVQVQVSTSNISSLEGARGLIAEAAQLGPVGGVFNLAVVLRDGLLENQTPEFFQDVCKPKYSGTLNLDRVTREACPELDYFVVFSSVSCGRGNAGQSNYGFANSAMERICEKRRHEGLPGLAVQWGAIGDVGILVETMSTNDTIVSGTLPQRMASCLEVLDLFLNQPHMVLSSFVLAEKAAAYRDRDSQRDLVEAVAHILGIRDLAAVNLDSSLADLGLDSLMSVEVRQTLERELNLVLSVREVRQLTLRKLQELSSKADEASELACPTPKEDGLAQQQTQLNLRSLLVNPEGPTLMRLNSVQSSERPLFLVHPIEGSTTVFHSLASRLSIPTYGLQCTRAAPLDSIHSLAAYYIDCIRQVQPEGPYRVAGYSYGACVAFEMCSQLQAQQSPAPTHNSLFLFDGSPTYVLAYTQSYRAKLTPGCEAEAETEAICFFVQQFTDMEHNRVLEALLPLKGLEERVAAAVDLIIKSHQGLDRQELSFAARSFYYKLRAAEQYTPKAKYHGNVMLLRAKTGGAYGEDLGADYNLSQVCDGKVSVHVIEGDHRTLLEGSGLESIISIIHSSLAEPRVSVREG
How it was run: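 CoA product reacted with thiol-reactive CPM (diluted to 50 μM in 70% ethanol), read at 390/530 nm after 30 min. Preceding reaction: 90 min, 5 nM recombinant GST-FASN, 150 μM NADPH, 10 μM acetyl-CoA, 25 μM malonyl-CoA, pH 7.5 HEPES, 0.5% DMSO. IC50s fitted by nonlinear sigmoidal regression.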

Row | SMILES | IC50 [nM]
1 | Cc1c(-c2ccc(OC3CCN(C(=O)NCC4CC4)CC3)cc2)ccc2nccn12 [Example 595, N-(Cyclopropylmethyl)-4-[4-(5-methylimidazo[1,2-a]pyridin-6-yl)-phenoxy]piperidine-1-carboxamide] | 100 to 999
2 | Cc1c(-c2ccc(OC3CCN(C(=O)NOC(C)C)CC3)cc2)ccn2ccnc12 [Example 630, N-Isopropoxy-4-[4-(8-methylimidazo[1,2-a]pyridin-7-yl)phenoxy]piperidine-1-carboxamide, HCl] | 100 to 999
3 | Cc1c(-c2ccc(OC3CCN(C(=O)NOC(C)C)CC3)cc2)ccc2cccnc12 [Example 543, N-Isopropoxy-4-[4-(8-methyl-7-quinolyl)phenoxy]piperidine-1-carboxamide] | 1000 to 10000
4 | Cc1c(-c2ccc(OC3CCN(C(=O)N4CCCCCC4)CC3)cc2)ccc2cccnc12 [Example 562, Azepan-1-yl-[4-[4-(8-methyl-7-quinolyl)phenoxy]-1-piperidyl]methanone] | 1000 to 10000

same assay, conditions: 5 nM FASN, 150 μM NADPH, 10 μM acetyl-CoA, 25 μM malonyl-CoA, 90 minutes incubation; read-out: IC50 data for Compounds of Formulae I-V/V(a): Activity

Row | SMILES | IC50 [nM]
5 | CCC(=O)N1CCC(Oc2ccc(-c3cccc(-c4ccccn4)c3F)cc2)CC1 [Example 395, 1-[4-(2′-Fluoro-3′-pyridin-2-yl-biphenyl-4-yloxy)-piperidin-1-yl]-propan-1-one] | 1000 to 10000
6 | O=C(C1CCC1)N1CCC(Oc2ccc(-c3cccc(-c4ccccn4)c3F)cc2)CC1 [Example 398, Cyclobutyl-[4-(2′-fluoro-3′-pyridin-2-yl-biphenyl-4-yloxy)-piperidin-1-yl]-methanone HCl] | 1000 to 10000
7 | O=C(C1CCC1)N1CCC(Oc2ccc(-c3ccc(N4CCOCC4)nc3)cc2)CC1 [Example 388, Cyclobutyl-{4-[4-(6-morpholin-4-yl-pyridin-3-yl)-phenoxy]-piperidin-1-yl}-methanone] | 1000 to 10000
8 | CC(C)C(=O)N1CCC(Oc2ccc(-c3ccc4cnccc4c3)nc2)CC1 [Example 148, 1-[4-(6-Isoquinolin-6-yl-pyridin-3-yloxy)-piperidin-1-yl]-2-methyl-propan-1-one, 2HCl] | 1000 to 10000
9 | CCC(=O)N1CCC(Oc2ccc(-c3cnc4cccc(OC)c4c3)cc2)CC1 [Example 463, 1-{4-[4-(5-Methoxyquinolin-3-yl)-phenoxy]-piperidin-1-yl}-propan-1-one, HCl] | 1000 to 10000
10 | CCC(=O)N1CCC(Oc2ccc(-c3cnc4cc(OC)c(OC)cc4c3)cc2)CC1 [Example 55, 1-{4-[4-(6,7-Dimethoxyquinolin-3-yl)-phenoxy]-piperidin-1-yl}-propan-1-one] | 1000 to 10000
11 | Cc1c(-c2ccc(OC3CCN(C(=O)C4(C(F)(F)F)CC4)CC3)cc2)ccc2cccnc12 [Example 315, {4-[4-(8-Methylquinolin-7-yl)-phenoxy]-piperidin-1-yl}-(1-trifluoro-methylcyclopropyl)-methanone] | 1000 to 10000
12 | O=C(C1CC1)N1CCC(Oc2ccc(-c3cnc4ccccc4c3)cc2Cl)CC1 [Example 193, [4-(2-Chloro-4-quinolin-3-yl-phenoxy)-piperidin-1-yl]-cyclopropyl-methanone] | 1000 to 10000
13 | Cc1c(-c2ccc(OC3CCN(C(=O)C4(C#N)CC4)CC3)cc2)ccc2cccnc12 [Example 319, 1-{4-[4-(8-Methylquinolin-7-yl)-phenoxy]-piperidine-1-carbonyl}-cyclopropanecarbonitrile] | 1000 to 10000
14 | Cc1c(-c2ccc(OC3CCN(C(=O)C4CCC4)CC3)cc2)cccc1-c1ccccn1 [Example 408, Cyclobutyl-[4-(2′-methyl-3′-pyridin-2-yl-biphenyl-4-yloxy)-piperidin-1-yl]-methanone, TFA salt] | 1000 to 10000
15 | CCC(=O)N1CCC(Oc2ccc(-c3ccc4cccnc4c3)nc2)CC1 [Example 144, 1-[4-(6-Quinolin-7-yl-pyridin-3-yloxy)-piperidin-1-yl]-propan-1-one, 2HCl] | 1000 to 10000
16 | O=C(C1CC1)N1CCC(Oc2ccc(-c3ccc4cccnc4c3OCCCN3CCCC3)cc2)CC1 [Example 176, Cyclopropyl-(4-{4-[8-(3-pyrrolidin-1-yl-propoxy)-quinolin-7-yl]-phenoxy}-piperidin-1-yl)-methanone, HCl] | 1000 to 10000
17 | CS(=O)(=O)N1CCC(Oc2ccc(-c3cnc4ccccc4c3)cc2)CC1 [Example 162, 3-[4-(1-Methanesulfonyl-piperidin-4-yloxy)-phenyl]-quinoline] | 1000 to 10000
18 | COc1cccc2ncc(-c3ccc(OC4CCN(C(=O)C5CC5)CC4)cc3)cc12 [Example 464, Cyclopropyl-{4-[4-(5-methoxyquinolin-3-yl)-phenoxy]-piperidin-1-yl}-methanone] | 1000 to 10000
19 | CCC(=O)N1CCC(Oc2ccc(-c3ccc4ncnn4c3C)cc2)CC1 [Example 313, 1-{4-[4-(5-Methyl-[1,2,4]triazolo[1,5-a]pyridin-6-yl)-phenoxy]-piperidin-1-yl}-propan-1-one] | 1000 to 10000

Second part, the compound after the results:

Row | IC50 [nM] | SMILES
20 | 1 to 99 | COCC(=O)N1CCC(Oc2ccc(-c3cnc4ccccc4c3)cc2)CC1 [Example 105]
21 | 1 to 99 | Cc1c(-c2ccc(OC3CCN(C(=O)[C@H]4CCCO4)C(C)C3)cc2)ccc2cccnc12 (mixture of isomers) [Example 362, {2-Methyl-4-[4-(8-methylquinolin-7-yl)-phenoxy]-piperidin-1-yl}-(R)-tetrahydrofuran-2-yl-methanone, HCl]
22 | 1 to 99 | Cc1c(-c2ccc(OC3CCN(C(=O)C4CCCO4)CC3C)cc2)ccc2cccnc12 (stereo in doubt) [Example 377, {3-Methyl-4-[4-(8-methylquinolin-7-yl)-phenoxy]-piperidin-1-yl}-(R)-tetrahydrofuran-2-yl-methanone, TFA salt]
23 | 100 to 999 | O=C(C1CCCCO1)N1CCC(Oc2ccc(-c3cnc4ccccc4c3)cc2)CC1 (centres unmarked) [Example 106, [4-(4-Quinolin-3-yl-phenoxy)-piperidin-1-yl]-(tetrahydropyran-2-yl)-methanone, 2HCl]
24 | 100 to 999 | Cc1c(-c2ccc(OC3CCN(C(=O)C4(O)CC4)CC3)cc2)ccc2ncnn12 [Example 312, (1-Hydroxycyclopropyl)-{4-[4-(5-methyl-[1,2,4]triazolo[1,5-a]pyridin-6-yl)-phenoxy]-piperidin-1-yl}-methanone]
25 | 1 to 99 | Cc1cc(-c2ccc(OC3CCN(C(=O)[C@H]4CCCO4)CC3)cc2)cc2ncccc12 [Example 352, (R)-(4-(4-(5-Methylquinolin-7-yl)phenoxy)piperidin-1-yl)(tetrahydrofuran-2-yl)methanone]
26 | 1 to 99 | CCC(=O)N1CCC(Oc2ccc(-c3cc4ccccc4cn3)cc2)CC1 [Example 43, 1-[4-(4-Isoquinolin-3-yl-phenoxy)-piperidin-1-yl]-propan-1-one]
27 | 1 to 99 | O=C(C1CCC1)N1CCC(Oc2ccc(-c3cnc4ccccc4c3)cc2)CC1 [Example 101, Cyclobutyl-[4-(4-quinolin-3-yl-phenoxy)-piperidin-1-yl]-methanone,HCl]
28 | 100 to 999 | Cc1ccc2ncc(-c3ccc(OC4CCN(C(=O)C5CC5)CC4)cc3)cc2c1 [Example 484, Cyclopropyl-{4-[4-(6-methylquinolin-3-yl)-phenoxy]-piperidin-1-yl}-methanone, HCl]
29 | 1 to 99 | O=C([C@H]1CCCO1)N1CCC(Oc2ccc(-c3ccc4cccnc4c3Cl)cc2F)CC1 [Example 223, {4-[4-(8-Chloroquinolin-7-yl)-2-fluorophenoxy]-piperidin-1-yl}-(R)-tetrahydrofuran-2-yl-methanone]
30 | 100 to 999 | Cc1c(-c2ccc(OC3CCN(C(=O)N4CCOCC4)CC3)cc2)ccc2cccnc12 [Example 99, [4-[4-(8-methyl-7-quinolyl)phenoxy]-1-piperidyl]-morpholino-methanone]
31 | 100 to 999 | Cc1c(-c2ccc(O[C@@H]3C[C@H]4CC[C@@H](C3)N4C(=O)[C@H]3CCCO3)cc2)ccc2cccnc12 [Example 360, {exo-3-[4-(8-Methylquinolin-7-yl)-phenoxy]-8-aza-bicyclo[3.2.1]oct-8-yl}-(R)-tetrahydrofuran-2-yl-methanone, HCl]
32 | 1 to 99 | CCC(=O)N1CCC(Sc2ccc(-c3ccc4cnccc4c3)cc2)CC1 [Example 517, 1-(4-((4-(Isoquinolin-6-yl)phenyl)thio)piperidin-1-yl)propan-1-one, HCl]
33 | 100 to 999 | CNc1c(-c2ccc(OC3CCN(C(=O)[C@H]4CCCO4)CC3)cc2)cnc2ccccc12 [Example 236, {4-[4-(4-Methylaminoquinolin-3-yl)-phenoxy]-piperidin-1-yl}-(R)-tetrahydrofuran-2-yl-methanone]
34 | 100 to 999 | COc1cc2cc(-c3ccc(OC4CCN(C(=O)C5CC5)CC4)cc3)ccc2cn1 [Example 416, Cyclopropyl-{4-[4-(3-methoxyisoquinolin-6-yl)-phenoxy]-piperidin-1-yl}-methanone]
35 | 100 to 999 | CC(C)(C)C(=O)N1CCC(Oc2ccc(-c3cnc4ccccc4c3)cc2)CC1 [Example 114, 2,2-Dimethyl-1-[4-(4-quinolin-3-yl-phenoxy)-piperidin-1-yl]-propan-1-one, HCl]
36 | 100 to 999 | CCC(=O)N1CCC(Oc2ccc(-c3cnc4ncccc4c3)cc2)CC1 [Example 252, 1-[4-(4-[1,8]Naphthyridin-3-yl-phenoxy)-piperidin-1-yl]-propan-1-one, TFA salt]
37 | 100 to 999 | Cc1c(-c2ccc(OC3CCN(C(=O)C4CC4)CC3)cc2)ccc2nccn12 [Example 287, Cyclopropyl-{4-[4-(5-methyl-imidazo[1,2-a]pyridin-6-yl)-phenoxy]-piperidin-1-yl}-methanone]
38 | 1 to 99 | Cc1c(-c2ccc(OC3CCN(C(=O)[C@H]4CCCO4)CC3)cc2)ccc2cccnc12 [Example 69, {4-[4-(8-Methylquinolin-7-yl)-phenoxy]-piperidin-1-yl}-(R)-tetrahydro-furan-2-yl-methanone]
